The target in assay [1] is T1, catalytic domain of human Bub1 (amino acids 704-1085) (Homo sapiens, UniProt O43683).
T1 construct: catalytic domain of human Bub1 (amino acids 704-1085); His6 (N); made in house; host or cells: Hi5 insect cells
Nature of the assay: Bub1 kinase assay (TR-FRET). The assay is classed as biochemical. The procedure, abridged:
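Compounds from 2 mM DMSO stocks, serially diluted 1:3.4, incubated with enzyme at 22° C for 60 min. Stopped with EDTA, then 1 h with streptavidin-XL665, anti-phosphoserine antibody and Eu-labelled anti-mouse IgG. Phosphorylated biotin-peptide read by TR-FRET; IC50 by 4-parameter logistic fit.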
A general note: TR-FRET usually uses a lanthanide donor and a delayed reading to cut background.

For assay [2], the target named is Bub1 (Homo sapiens, UniProt O43683). Kind of assay: Formation-Assay: phosphorylation status of histone 2A by inhibition of kinase activity of Bub1. Conditions: Biological Assay 4.1: H2A Formation IC50, co-treatment with Nocodazole 1 μg/ml, 16 h. Type of assay: cell-based. The gist of the method: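 Cells co-treated 16 h with Nocodazole (1 μg/ml) and compound (3 nM–10 μM), then fixed and immunostained for phospho-H2A, read by infrared imaging (800 nm) normalised to cell stain (700 nm). Nocodazole-only set as 100%, untreated cells as 0%.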

In assay [3] the test system is HeLa human cervical tumor cells. Nature of the assay: Proliferation assay (HeLa+Paclitaxel).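 Further: compounds at 0.001-10 µM added 4 h after paclitaxel, 92 h exposure, absorbance normalized to zero-point plate (0%) and untreated cells (100%), IC50 from 4-parameter fit.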 Conditions: read-out: Biological Assay 3: HeLa + Paclitaxel IC50, 3 nM paclitaxel, crystal violet.
Experimental: Proliferation Assay (HeLa+Paclitaxel):
Cultivated HeLa human cervical tumor cells (DSMZ ACC-57) were plated at a density of 3000 cells/well in a 96-well multititer plate in 200 μL of growth medium supplemented 10% fetal calf serum. After 24 hours, the cells of one plate (zero-point plate) were stained with crystal violet (see below). The medium of the other plates was supplemented with 3 nM of paclitaxel (Sigma-Aldrich) and the cells were incubated at 37° C. After 4 hours the test substances were added in various concentrations (0 μM, as well as in the range of 0.001-10 μM; the final concentration of the solvent dimethyl sulfoxide was adjusted to 0.1%) using a Hewlett-Packard HP D300 Digital Dispenser. The cells were incubated for another 92 hours at 37° C. in the presence of test substances. Cell proliferation was determined by staining the cells with crystal violet: the cells were fixed by adding 20 μL/measuring point of an 11% glutaric aldehyde solution for 15 minutes at room temperature. After three washing cycles of the fixed cells with water, the plates were dried at room temperature. The cells were stained by adding 100 μL/measuring point of a 0.1% crystal violet solution (pH 3.0). After three washing cycles of the stained cells with water, the plates were dried at room temperature. The dye was dissolved by adding 100 μL/measuring point of a 10% acetic acid solution. […] The change of cell number, in percent, was calculated by normalization of the measured values to the absorbtion values of the zero-point plate (=0%) and the absorbtion of the untreated (0 μm) cells (=100%). The IC50 values were determined by means of a 4 parameter fit.
Assay [4] has as its system HeLa. Kind of assay: Proliferation assay (HeLa cell line).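 Further: crystal violet staining of cell number, scaled between a plate stained before dosing (0%) and cells left untreated (100%), compounds tested at 0.001-10 µM, IC50 via 4-parameter fit.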 Conditions: Homo sapiens, 96 h, read-out: Biological Assay 2: Proliferation assay (HeLa cell line) median IC50.
[5] abbreviates: Biological Assay 1: Bub1 kinase assay median IC50, 10 μM ATP.
Setting [6] is: 10 μM ATP, read-out: Biological Assay 1: Bub1 kinase assay median IC50.

Structures are written as SMILES. Structures can show the parent of a compound that is named as a salt. Where two headings read alike, the source gives them in different places.

T1 sequence (O43683 704-1085): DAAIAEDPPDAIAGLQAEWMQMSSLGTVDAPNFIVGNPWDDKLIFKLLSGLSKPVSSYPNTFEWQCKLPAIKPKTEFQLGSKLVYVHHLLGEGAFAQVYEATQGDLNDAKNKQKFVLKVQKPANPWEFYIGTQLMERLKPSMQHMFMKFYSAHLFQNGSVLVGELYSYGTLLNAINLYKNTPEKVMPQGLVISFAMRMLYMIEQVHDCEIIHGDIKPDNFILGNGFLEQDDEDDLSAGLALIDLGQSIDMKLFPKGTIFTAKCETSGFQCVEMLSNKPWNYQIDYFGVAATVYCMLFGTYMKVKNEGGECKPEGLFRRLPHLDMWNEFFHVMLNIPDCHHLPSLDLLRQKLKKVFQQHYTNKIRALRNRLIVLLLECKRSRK
Chain of Bub1 (O43683 whole entry): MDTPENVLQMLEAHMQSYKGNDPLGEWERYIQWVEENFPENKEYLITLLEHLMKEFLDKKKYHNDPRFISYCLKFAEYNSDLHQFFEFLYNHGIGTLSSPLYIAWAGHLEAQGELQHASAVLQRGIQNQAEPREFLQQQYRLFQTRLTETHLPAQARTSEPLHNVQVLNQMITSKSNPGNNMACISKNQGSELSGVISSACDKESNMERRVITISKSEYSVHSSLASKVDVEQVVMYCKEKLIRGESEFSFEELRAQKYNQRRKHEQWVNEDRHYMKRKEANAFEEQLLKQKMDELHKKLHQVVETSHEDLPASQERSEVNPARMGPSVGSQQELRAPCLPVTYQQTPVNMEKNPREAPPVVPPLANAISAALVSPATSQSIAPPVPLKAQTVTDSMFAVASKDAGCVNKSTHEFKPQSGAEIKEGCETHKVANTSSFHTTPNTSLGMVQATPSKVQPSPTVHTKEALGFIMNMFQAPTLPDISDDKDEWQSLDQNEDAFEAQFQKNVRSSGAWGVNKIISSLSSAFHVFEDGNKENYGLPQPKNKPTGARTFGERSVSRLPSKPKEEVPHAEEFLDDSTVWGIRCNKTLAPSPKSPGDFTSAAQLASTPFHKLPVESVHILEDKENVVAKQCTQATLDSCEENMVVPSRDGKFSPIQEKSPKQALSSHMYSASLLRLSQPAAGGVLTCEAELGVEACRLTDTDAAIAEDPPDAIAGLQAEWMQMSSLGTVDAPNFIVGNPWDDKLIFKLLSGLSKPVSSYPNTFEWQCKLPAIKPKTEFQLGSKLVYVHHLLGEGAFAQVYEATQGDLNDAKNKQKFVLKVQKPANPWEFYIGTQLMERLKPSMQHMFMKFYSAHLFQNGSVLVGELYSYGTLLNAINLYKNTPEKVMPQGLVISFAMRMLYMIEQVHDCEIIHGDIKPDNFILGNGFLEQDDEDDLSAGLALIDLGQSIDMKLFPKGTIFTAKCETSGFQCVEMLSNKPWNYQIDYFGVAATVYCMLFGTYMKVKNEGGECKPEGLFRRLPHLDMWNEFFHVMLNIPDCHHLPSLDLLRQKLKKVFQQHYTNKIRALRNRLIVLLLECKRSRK

As to `COCc1cc(Nc2ccnc(C)c2)nc(-c2nn(Cc3c(F)cc(OCCO)cc3F)c3ccccc23)n1` [Example 2-12-51, 2-{3,5-difluoro-4-[(3-{4-(methoxymethyl)-6-[(2-methylpyridin-4-yl)amino]pyrimidin-2-yl}-1H-indazol-1-yl)methyl]phenoxy}eth-anol], the IC50 in assay [1] (setting [5]) is 45 nM; in assay [2], 570 nM; in assay [3] it was 340 nM; in assay [4], 410 nM.

In the case of `Cc1cc(Nc2nc(-c3nn(Cc4c(F)cc(OCCO)cc4F)c4ccccc34)nc3c2CCC3)c(C)cn1` [Example 2-6-20, 2-{4-[(3-{4-[(2,5-dimethylpyridin-4-yl)amino]-6,7-dihydro-5H-cyclopenta[d]pyrimidin-2-yl}-1H-indazol-1-yl)methyl]-3,5-difluorophenoxy} ethanol], the IC50 is 66 nM in assay [1] (setting [6]), 1.8 nM in assay [2], 140 nM in assay [3] and 3400 nM in assay [4].

Turning to `CCOc1cc(F)c(Cn2nc(-c3nc(CO)cc(Nc4ccncc4C)n3)c3ccccc32)c(F)c1` [Example 2-6-4, {2-[1-(4-ethoxy-2,6-difluorobenzyl)-1H-indazol-3-yl]-6-[(3-methylpyridin-4-yl)amino]pyrimidin-4-yl}methanol], the IC50 in assay [1] (setting [6]) is 9.1 nM; in assay [2] it was 52 nM; in assay [3], 170 nM; in assay [4] it was 1400 nM.

In the case of `CCOc1cc(F)c(Cn2nc(-c3ncc(CC4CN(CC(F)(F)F)C4)c(Nc4ccncc4)n3)c3ccccc32)c(F)c1` [Example 2-11-1, 2-[1-(4-ethoxy-2,6-difluorobenzyl)-1H-indazol-3-yl]-N-(pyridin-4-yl)-5-{[1-(2,2,2-trifluoroethyl)azetidin-3-yl]methyl}pyrimidin-4-amine], the IC50 in assay [1] (setting [5]) was 62 nM; in assay [2], 41 nM; in assay [3], 230 nM; in assay [4] it was more than 10000 nM.

Consider `CCOc1cc(F)c(Cn2nc(-c3nc4c(c(Nc5ccnc(NC(C)=O)c5)n3)CSC4)c3ccccc32)c(F)c1` [Example 2-19-3, N-[4-({2-[1-(4-ethoxy-2,6-difluorobenzyl)-1H-indazol-3-yl]-5,7-dihydrothieno[3,4-d]pyrimidin-4-yl}amino)pyridin-2-yl]acetamide], for which the IC50 in assay [1] (setting [5]) amounted to 8.9 nM; in assay [2] it was 340 nM; in assay [3] it was 610 nM; in assay [4], 2100 nM.

`CCOc1cc(F)c(Cn2nc(-c3nc4c(c(Nc5ccnnc5)n3)CCC4)c3ccccc32)c(F)c1` [Example 2-14-5, 2-[1-(4-ethoxy-2,6-difluorobenzyl)-1H-indazol-3-yl]-N-(pyridazin-4-yl)-6,7-dihydro-5H-cyclopenta[d]pyrimidin-4-amine]: the IC50 came to 16 nM in assay [1] (setting [6]), 2.7 nM in assay [2], 540 nM in assay [3] and 3600 nM in assay [4].

Turning to `C[S@@+]([O-])CCCc1cnc(-c2nn(Cc3c(F)cc(OCCO)cc3F)c3ccccc23)nc1Nc1ccncc1` [Example 2-4-3, 2-[3,5-difluoro-4-({3-[5-{3-[(R)-methylsulfinyl]propyl}-4-(pyridin-4-ylamino)pyrimidin-2-yl]-1H-indazol-1-yl}methyl)phenoxy]ethanol], the IC50 was 940 nM in assay [1] (setting [5]), 1000 nM in assay [2], more than 10000 nM in assay [3] and more than 10000 nM in assay [4].

Consider `COCc1cc(Nc2ccncc2C)nc(-c2nn(Cc3c(F)cc(OCCO)cc3F)c3ccccc23)n1` [Example 2-12-50, 2-{3,5-difluoro-4-[(3-{4-(methoxymethyl)-6-[(3-methylpyridin-4-yl)amino]pyrimidin-2-yl}-1H-indazol-1-yl)methyl]phenoxy}eth-anol], for which the IC50 was determined as 5.4 nM in assay [1] (setting [5]), 23 nM in assay [2], 1300 nM in assay [3] and 970 nM in assay [4].

Consider `CCOc1cc(F)c(Cn2nc(-c3nc(CN4CCOCC4)cc(Nc4ccncn4)n3)c3ccccc32)c(F)c1` [Example 2-12-47, 2-[1-(4-ethoxy-2,6-difluorobenzyl)-1H-indazol-3-yl]-6-(morpholin-4-ylmethyl)-N-(pyrimidin-4-yl)pyrimidin-4-amine], for which the IC50 in assay [1] (setting [6]) worked out at 5.2 nM; in assay [2] it was 2100 nM; in assay [3], 68 nM; in assay [4], 6100 nM.

As to `CCOc1cc(F)c(Cn2nc(-c3nc4c(c(Nc5ccncc5OC)n3)COC4)c3ccccc32)c(F)c1` [Example 2-19-17, 2-[1-(4-ethoxy-2,6-difluorobenzyl)-1H-indazol-3-yl]-N-(3-methoxypyridin-4-yl)-5,7-dihydrofuro[3,4-d]pyrimidin-4-amine], the IC50 in assay [1] (setting [6]) worked out at 18 nM; in assay [2], 7100 nM; in assay [3], 140 nM; in assay [4] it was 1500 nM.

Take `CCOc1cc(F)c(Cn2nc(-c3ncc(CCCCN4CCCC(F)(F)C4)c(Nc4ccncc4)n3)c3ccccc32)c(F)c1` [Example 2-2-17, 5-[4-(3,3-difluoropiperidin-1-yl)butyl]-2-[1-(4-ethoxy-2,6-difluorobenzyl)-1H-indazol-3-yl]-N-(pyridin-4-yl)pyrimidin-4-amine]: the IC50 came to 95 nM in assay [1] (setting [5]), 1200 nM in assay [2], 340 nM in assay [3] and 9300 nM in assay [4].

For `OCCOc1cc(F)c(Cn2nc(-c3nc4c(c(Nc5ccncn5)n3)CCC4)c3ccccc32)c(F)c1` [Example 2-6-19, 2-[3,5-difluoro-4-({3-[4-(pyrimidin-4-ylamino)-6,7-dihydro-5H-cyclopenta[d]pyrimidin-2-yl]-1H-indazol-1-yl}methyl)phenoxy]ethanol], the IC50 in assay [1] (setting [5]) was 8.9 nM; in assay [2] it was 2.6 nM; in assay [3], 140 nM; in assay [4], more than 10000 nM.

On to `CCOc1cc(F)c(Cn2nc(-c3nc4c(c(Nc5ccncc5C)n3)CCCC4)c3ccccc32)c(F)c1` [Example 2-19-20, 2-[1-(4-ethoxy-2,6-difluorobenzyl)-1H-indazol-3-yl]-N-(3-methylpyridin-4-yl)-5,6,7,8-tetrahydroquinazolin-4-amine], for which the IC50 in assay [1] (setting [6]) was found to be 7 nM; in assay [2], 49 nM; in assay [3], 120 nM; in assay [4] it was 5200 nM.

Take `CCOc1cc(F)c(Cn2nc(-c3ncc(CC4CNC4)c(Nc4ccnc(NC(C)=O)c4)n3)c3ccccc32)c(F)c1` [Example 2-9-7, N-[4-({5-(azetidin-3-ylmethyl)-2-[1-(4-ethoxy-2,6-difluorobenzyl)-1H-indazol-3-yl]pyrimidin-4-yl}amino)pyridin-2-yl]acetamide, salt with hydrochloric acid]: the IC50 was found to be 7.4 nM in assay [1] (setting [5]), 6.7 nM in assay [2], 170 nM in assay [3] and 10000 nM in assay [4].

Turning to `Cc1nccc(Nc2nc(-c3nn(Cc4c(F)cc(OCCO)cc4F)c4ccccc34)nc3c2CC(C)(C)C3)n1` [Example 2-6-22, 2-{4-[(3-{6,6-dimethyl-4-[(2-methylpyrimidin-4-yl)amino]-6,7-dihydro-5H-cyclopenta[d]pyrimidin-2-yl}-1H-indazol-1-yl)methyl]-3,5-difluorophenoxy} ethanol], the IC50 in assay [1] (setting [5]) worked out at 81 nM; in assay [2], 180 nM; in assay [3] it was 99 nM; in assay [4] it was 9200 nM.

For `CCOc1cc(F)c(Cn2nc(-c3nc(CN4CCOCC4)cc(Nc4ccnc(NC(C)=O)c4)n3)c3ccccc32)c(F)c1` [Example 2-12-14, N-[4-({2-[1-(4-ethoxy-2,6-difluorobenzyl)-1H-indazol-3-yl]-6-(morpholin-4-ylmethyl)pyrimidin-4-yl}amino)pyridin-2-yl]acetamide], the IC50 came to 8.8 nM in assay [1] (setting [6]), 11 nM in assay [2], 100 nM in assay [3] and 1800 nM in assay [4].

On to `CCOc1cc(F)c(Cn2nc(-c3ncc(C4CCN(CCC(F)(F)F)CC4)c(Nc4ccncc4OC)n3)c3ccccc32)c(F)c1` [Example 2-22-1, 2-[1-(4-ethoxy-2,6-difluorobenzyl)-1H-indazol-3-yl]-N-(3-methoxypyridin-4-yl)-5-[1-(3,3,3-trifluoropropyl)piperidin-4-yl]pyrimidin-4-amine], for which the IC50 came out at 35 nM in assay [1] (setting [5]), 72 nM in assay [2], 140 nM in assay [3] and 3600 nM in assay [4].

For the compound `CCOc1cc(F)c(Cn2nc(-c3nc4c(c(Nc5ccncc5OC)n3)CC(C)(C)CC4)c3ccccc32)c(F)c1` [Example 2-12-67, 2-[1-(4-ethoxy-2,6-difluorobenzyl)-1H-indazol-3-yl]-N-(3-methoxypyridin-4-yl)-6,6-dimethyl-5,6,7,8-tetrahydroquinazolin-4-amine], the IC50 is 66 nM in assay [1] (setting [6]), 22 nM in assay [2], 150 nM in assay [3] and 4400 nM in assay [4].

Take `CCOc1cc(F)c(Cn2nc(-c3nc4c(c(Nc5ccncc5)n3)CSC4)c3ccccc32)c(F)c1` [Example 2-19-1, 2-[1-(4-ethoxy-2,6-difluorobenzyl)-1H-indazol-3-yl]-N-(pyridin-4-yl)-5,7-dihydrothieno[3,4-d]pyrimidin-4-amine]: the IC50 in assay [1] (setting [6]) worked out at 14 nM; in assay [2], 350 nM; in assay [3], 350 nM; in assay [4], 1200 nM.

These data come from patent US20170275270A1, “BENZYL SUBSTITUTED INDAZOLES” (Bayer Pharma Aktiengesellschaft, priority 2014, published 2017).
